From ChEMBL document CHEMBL1177828, “Design and evaluation of 3,6-di(hetero)aryl imidazo[1,2-a]pyrazines as inhibitors of checkpoint and other kinases” (Bioorg Med Chem Lett, 2010)

Key:
[1] = target: T1, Serine/threonine-protein kinase Chk1 (Homo sapiens, UniProt O14757); experiment: Inhibition of CHK1 by DELFIA
T1 sequence (O14757 whole entry): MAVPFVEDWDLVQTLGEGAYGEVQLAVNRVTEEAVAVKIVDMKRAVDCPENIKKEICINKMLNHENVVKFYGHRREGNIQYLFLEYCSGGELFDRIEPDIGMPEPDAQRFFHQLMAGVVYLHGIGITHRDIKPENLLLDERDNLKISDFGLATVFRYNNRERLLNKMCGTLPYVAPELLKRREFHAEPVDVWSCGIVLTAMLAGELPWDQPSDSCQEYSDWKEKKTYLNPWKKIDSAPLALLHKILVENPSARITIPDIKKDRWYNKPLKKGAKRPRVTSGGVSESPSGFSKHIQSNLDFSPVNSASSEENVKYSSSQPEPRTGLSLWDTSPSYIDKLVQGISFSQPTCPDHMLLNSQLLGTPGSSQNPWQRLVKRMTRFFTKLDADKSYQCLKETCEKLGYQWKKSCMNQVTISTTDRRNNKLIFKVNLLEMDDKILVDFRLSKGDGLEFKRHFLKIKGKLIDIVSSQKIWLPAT

[2] = target: Tyrosine-protein kinase ABL1 (Homo sapiens, UniProt P00519); experiment: Inhibition of ABL1 by Z-lite assay
Chain of Tyrosine-protein kinase ABL1 (P00519 whole entry): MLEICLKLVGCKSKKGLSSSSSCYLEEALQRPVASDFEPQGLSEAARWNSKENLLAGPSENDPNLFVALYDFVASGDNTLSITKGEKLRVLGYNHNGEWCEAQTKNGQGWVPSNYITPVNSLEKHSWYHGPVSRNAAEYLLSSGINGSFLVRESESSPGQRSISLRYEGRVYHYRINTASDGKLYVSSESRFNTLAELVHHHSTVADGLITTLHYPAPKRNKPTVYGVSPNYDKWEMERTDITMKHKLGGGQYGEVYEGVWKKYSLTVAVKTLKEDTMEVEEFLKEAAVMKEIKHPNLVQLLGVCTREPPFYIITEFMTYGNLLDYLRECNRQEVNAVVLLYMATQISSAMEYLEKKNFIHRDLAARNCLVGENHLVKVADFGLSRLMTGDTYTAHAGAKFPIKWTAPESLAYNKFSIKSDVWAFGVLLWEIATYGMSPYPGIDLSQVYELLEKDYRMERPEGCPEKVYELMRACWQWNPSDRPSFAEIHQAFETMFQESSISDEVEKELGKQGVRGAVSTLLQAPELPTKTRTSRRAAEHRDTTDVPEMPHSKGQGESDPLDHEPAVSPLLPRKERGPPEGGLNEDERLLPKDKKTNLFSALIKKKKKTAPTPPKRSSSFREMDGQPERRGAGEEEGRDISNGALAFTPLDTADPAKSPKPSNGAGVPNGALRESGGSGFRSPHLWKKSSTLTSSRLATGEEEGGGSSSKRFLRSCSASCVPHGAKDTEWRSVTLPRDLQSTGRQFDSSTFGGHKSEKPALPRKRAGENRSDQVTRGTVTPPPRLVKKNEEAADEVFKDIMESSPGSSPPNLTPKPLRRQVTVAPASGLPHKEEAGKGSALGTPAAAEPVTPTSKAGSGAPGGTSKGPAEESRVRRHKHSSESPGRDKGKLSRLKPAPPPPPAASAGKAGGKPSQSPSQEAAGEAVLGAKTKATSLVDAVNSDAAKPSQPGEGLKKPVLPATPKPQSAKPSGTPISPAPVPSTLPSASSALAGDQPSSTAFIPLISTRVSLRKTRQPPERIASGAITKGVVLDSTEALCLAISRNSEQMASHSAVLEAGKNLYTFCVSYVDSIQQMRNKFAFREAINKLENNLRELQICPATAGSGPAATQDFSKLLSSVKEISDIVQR

[3] = target: RAC-alpha serine/threonine-protein kinase (Homo sapiens) (UniProt P31749); experiment: Inhibition of AKT1 at 10 uM by mobility shift assay
Chain of RAC-alpha serine/threonine-protein kinase (Homo sapiens) (P31749 whole entry): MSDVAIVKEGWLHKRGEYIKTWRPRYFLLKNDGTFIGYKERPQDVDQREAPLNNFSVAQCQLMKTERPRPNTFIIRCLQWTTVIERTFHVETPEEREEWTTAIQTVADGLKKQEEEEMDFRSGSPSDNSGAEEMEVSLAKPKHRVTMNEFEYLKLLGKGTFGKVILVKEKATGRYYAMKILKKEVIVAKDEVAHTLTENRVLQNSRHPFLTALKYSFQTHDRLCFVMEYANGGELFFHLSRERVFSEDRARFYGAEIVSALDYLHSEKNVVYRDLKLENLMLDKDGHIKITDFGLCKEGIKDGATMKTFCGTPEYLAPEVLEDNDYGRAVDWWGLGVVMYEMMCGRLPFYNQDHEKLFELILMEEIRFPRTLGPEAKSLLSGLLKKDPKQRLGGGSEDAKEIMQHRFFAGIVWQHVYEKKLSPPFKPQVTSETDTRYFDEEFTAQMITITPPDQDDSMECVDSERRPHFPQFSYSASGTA

[4] = target: T2, Glycogen synthase kinase-3 beta (Homo sapiens, UniProt P49841); experiment: Inhibition of GSK3-beta at 10 uM by mobility shift assay
Target sequence in this assay (P49841 whole entry, looked up): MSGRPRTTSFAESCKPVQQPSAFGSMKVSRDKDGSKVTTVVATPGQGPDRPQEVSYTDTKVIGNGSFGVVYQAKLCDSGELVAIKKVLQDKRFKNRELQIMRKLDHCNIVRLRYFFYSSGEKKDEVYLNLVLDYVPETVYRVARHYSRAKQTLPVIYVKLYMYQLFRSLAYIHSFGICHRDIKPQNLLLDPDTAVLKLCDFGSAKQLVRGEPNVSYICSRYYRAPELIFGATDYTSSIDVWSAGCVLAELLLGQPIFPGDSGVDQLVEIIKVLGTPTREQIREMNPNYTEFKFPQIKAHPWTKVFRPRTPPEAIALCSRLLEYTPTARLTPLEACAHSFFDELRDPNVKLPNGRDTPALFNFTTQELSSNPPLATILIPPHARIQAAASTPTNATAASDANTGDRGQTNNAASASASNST

[5] = target: Tyrosine-protein kinase Fyn (Homo sapiens) (UniProt P06241); experiment: Inhibition of FYN at 10 uM by mobility shift assay
Chain of Tyrosine-protein kinase Fyn (Homo sapiens) (P06241 2-537 limits assumed): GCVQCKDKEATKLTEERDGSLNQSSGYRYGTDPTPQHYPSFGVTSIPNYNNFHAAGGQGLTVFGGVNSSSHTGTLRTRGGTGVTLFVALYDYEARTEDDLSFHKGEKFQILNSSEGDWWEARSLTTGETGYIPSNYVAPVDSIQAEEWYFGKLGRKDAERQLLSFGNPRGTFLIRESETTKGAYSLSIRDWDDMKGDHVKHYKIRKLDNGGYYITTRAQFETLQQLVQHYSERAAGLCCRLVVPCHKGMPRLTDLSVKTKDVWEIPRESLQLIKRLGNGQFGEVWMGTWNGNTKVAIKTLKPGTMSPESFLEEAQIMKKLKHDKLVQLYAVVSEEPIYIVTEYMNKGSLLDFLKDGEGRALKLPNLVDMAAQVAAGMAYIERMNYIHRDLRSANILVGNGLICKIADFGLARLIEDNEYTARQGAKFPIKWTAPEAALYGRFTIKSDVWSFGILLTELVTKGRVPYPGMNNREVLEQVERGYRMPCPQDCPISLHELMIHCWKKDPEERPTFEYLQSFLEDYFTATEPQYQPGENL

[6] = target: Tyrosine-protein kinase Lyn (Homo sapiens) (UniProt P07948); experiment: Inhibition of LYN at 10 uM by mobility shift assay
Chain of Tyrosine-protein kinase Lyn (Homo sapiens) (P07948 2-512 limits assumed): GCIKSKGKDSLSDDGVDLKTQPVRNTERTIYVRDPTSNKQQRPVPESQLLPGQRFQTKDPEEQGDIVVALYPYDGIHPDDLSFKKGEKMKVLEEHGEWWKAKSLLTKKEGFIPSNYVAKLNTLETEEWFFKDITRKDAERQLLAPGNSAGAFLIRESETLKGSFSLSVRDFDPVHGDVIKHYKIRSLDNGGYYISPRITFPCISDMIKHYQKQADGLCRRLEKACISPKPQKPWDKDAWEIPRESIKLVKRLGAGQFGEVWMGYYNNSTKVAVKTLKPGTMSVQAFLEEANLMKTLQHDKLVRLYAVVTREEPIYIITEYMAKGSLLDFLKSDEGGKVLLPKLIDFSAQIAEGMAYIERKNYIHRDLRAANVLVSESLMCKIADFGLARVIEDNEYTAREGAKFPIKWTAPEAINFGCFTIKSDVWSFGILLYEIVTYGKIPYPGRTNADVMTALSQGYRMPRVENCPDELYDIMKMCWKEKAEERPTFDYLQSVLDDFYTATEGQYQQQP

[7] = target: T3, MAP kinase-activated protein kinase 5 (Homo sapiens) (UniProt Q8IW41); experiment: Inhibition of PRAK1 at 10 uM by mobility shift assay
T3 sequence (whole entry): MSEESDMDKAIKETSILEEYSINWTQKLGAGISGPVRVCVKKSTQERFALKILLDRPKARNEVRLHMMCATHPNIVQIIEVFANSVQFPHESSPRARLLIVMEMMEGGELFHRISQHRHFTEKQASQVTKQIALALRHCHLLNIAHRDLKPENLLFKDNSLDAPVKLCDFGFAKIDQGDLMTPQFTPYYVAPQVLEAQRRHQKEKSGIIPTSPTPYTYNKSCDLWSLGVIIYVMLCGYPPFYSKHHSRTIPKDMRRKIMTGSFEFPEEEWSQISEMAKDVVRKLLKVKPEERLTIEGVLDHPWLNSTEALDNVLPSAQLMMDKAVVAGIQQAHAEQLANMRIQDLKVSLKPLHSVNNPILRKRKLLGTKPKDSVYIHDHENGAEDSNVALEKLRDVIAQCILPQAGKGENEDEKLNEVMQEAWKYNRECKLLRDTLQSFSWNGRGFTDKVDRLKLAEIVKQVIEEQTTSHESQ

[8] = target: Insulin receptor (Homo sapiens) (UniProt P06213); experiment: Inhibition of INSR at 10 uM by mobility shift assay
Chain of Insulin receptor (Homo sapiens) (P06213 28-758 limits assumed): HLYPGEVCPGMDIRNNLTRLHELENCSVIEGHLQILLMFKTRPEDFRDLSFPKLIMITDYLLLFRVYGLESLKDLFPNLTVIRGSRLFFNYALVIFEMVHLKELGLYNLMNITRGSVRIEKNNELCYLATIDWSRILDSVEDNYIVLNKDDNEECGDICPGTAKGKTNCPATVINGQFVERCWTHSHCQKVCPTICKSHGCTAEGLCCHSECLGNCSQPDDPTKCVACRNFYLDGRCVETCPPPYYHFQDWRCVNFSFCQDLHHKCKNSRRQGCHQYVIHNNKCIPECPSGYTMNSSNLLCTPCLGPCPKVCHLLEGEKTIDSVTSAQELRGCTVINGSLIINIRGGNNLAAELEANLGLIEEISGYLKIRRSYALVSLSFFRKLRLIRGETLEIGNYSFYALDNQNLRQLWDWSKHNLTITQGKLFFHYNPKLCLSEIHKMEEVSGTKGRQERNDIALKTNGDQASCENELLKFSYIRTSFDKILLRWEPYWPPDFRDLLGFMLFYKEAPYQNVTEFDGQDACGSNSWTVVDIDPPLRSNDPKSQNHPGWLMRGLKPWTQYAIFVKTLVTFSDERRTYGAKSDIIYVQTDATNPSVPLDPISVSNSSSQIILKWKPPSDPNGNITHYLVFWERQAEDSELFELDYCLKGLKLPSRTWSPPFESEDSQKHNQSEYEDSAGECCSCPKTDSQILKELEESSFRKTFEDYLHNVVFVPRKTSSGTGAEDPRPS
Chain of Insulin receptor (Homo sapiens) (P06213 763-1382 limits assumed): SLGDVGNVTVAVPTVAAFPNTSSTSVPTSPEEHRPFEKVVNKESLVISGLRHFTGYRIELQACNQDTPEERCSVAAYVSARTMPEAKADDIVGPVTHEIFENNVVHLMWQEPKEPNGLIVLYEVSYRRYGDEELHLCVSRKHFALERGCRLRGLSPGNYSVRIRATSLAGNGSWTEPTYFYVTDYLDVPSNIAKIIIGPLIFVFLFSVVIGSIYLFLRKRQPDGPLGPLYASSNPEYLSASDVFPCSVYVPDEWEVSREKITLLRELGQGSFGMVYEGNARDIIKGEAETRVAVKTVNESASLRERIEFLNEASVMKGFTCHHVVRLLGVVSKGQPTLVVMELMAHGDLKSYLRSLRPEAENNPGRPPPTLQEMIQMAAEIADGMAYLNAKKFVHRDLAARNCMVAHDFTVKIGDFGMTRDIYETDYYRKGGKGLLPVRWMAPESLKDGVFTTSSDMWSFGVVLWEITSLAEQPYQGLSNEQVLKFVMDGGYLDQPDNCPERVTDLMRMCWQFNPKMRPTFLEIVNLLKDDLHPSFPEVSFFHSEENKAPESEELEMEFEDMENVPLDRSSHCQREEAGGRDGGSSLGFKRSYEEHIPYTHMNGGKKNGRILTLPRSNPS

[9] = target: T4, Serine/threonine-protein kinase Chk1 (Homo sapiens) (UniProt O14757); experiment: Inhibition of CHK1 at 10 uM by mobility shift assay
T4 sequence (whole entry): T1 sequence (O14757 whole entry)

[10] = target: MAP kinase-activated protein kinase 2 (Homo sapiens) (UniProt P49137); experiment: Inhibition of MAPKAP2 at 10 uM by mobility shift assay
Chain of MAP kinase-activated protein kinase 2 (Homo sapiens) (P49137 whole entry, looked up): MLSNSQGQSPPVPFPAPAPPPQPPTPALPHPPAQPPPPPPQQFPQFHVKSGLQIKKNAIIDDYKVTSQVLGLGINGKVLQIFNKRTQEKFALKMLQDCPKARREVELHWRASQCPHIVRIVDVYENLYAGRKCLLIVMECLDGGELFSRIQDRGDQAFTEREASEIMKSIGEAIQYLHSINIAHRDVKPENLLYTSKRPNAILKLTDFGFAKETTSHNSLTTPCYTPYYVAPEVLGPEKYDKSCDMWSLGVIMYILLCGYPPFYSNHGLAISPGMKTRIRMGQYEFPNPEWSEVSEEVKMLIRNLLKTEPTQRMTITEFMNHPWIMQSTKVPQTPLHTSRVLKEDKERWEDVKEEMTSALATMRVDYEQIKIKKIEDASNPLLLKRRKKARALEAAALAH

[11] = target: T2, Glycogen synthase kinase-3 beta; experiment: Inhibition of GSK3-beta
Target sequence in this assay (P49841 whole entry): as the sequence (P49841 whole entry, looked up) above

[12] = Inhibition of PKA at 10 uM by mobility shift assay

inhibition [4]	inhibition [5]	inhibition [6]	inhibition [7]	inhibition [8]	inhibition [9]	inhibition [10]	IC50 [11]	inhibition [12]	SMILES	IC50 [1]	IC50 [2]	inhibition [3]
80%	45%	46%	5%	5%	8%	-2%	3.1 µM		c1ccc(-c2cnc3cnc(-c4ccncc4)cn23)cc1			
57%	99%	99%	4%	8%	32%	-6%		-1%	OCc1cccc(-c2cn3c(-c4cn[nH]c4)cnc3cn2)c1			
87%	62%	59%	35%	13%	68%	35%		2%	c1ccc2c(-c3cnc4cnc(-c5cn[nH]c5)cn34)c[nH]c2c1			11%

SMILES	inhibition [4]	inhibition [5]	inhibition [6]	inhibition [7]	inhibition [8]	inhibition [9]	inhibition [10]	IC50 [11]	inhibition [12]	IC50 [1]	IC50 [2]	inhibition [3]
c1n[nH]cc1-c1cnc2ncc(-c3cn[nH]c3)n2c1	31%	97%	94%	6%	1%	40%	-2%			5 µM	0.44 µM	-6%
